# Patent US20260216152A1, “Combinations Comprising Benzodioxol as GLP-1R Agonists for Use in the Treatment of NASH/NAFLD and Related Diseases” (Pfizer Inc., priority 2019, published 2026)
# Assays:
# [1] = Thermodynamic stability of crystal forms versus water activity; format: physicochemical; conditions: ambient temperature; 0.2 = 20% RH
# Procedure: Form 1 of Example ACCi is anhydrous and is thermodynamically stable below a water activity of about 0.2 (20% RH) at ambient temperature. Characteristic PXRD peaks of Form 1 of Example ACCi, expressed as 2θ+0.2° 2θ are at 9.6, 10.7, and 11.3.
# Form 2 of Example ACCi is a trihydrate and is thermodynamically stable above a water activity of about 0.2 at ambient temperature and 20% RH. Characteristic PXRD peaks of Form 2 of Example ACCi, expressed as 2θ+0.2° 2θ are at 8.4, 9.0, 10.5, 15.0, and 24.7.
# [2] = target: T1, recombinant human DGAT1 (hDGAT1) (Homo sapiens, UniProt O75907); assay: Selectivity by biochemical assessment versus hDGAT1; conditions: in vitro
# T1 sequence (O75907 1-488): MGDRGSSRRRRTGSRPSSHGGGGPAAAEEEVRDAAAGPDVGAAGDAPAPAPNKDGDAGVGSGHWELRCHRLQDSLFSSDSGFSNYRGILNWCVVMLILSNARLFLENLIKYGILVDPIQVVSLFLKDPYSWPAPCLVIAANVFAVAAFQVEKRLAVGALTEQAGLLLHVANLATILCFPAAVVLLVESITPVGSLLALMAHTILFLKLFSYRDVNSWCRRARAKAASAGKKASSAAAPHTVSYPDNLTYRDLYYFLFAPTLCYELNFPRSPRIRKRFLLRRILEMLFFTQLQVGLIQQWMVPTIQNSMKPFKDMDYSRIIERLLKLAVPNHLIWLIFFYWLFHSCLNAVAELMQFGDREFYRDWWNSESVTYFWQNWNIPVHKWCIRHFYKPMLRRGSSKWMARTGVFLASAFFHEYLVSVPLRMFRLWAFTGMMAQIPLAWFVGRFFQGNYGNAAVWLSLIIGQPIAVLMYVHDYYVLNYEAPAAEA
# Source text: (§1) (S)-2-(5-((3-ethoxypyridin-2-yl)oxy)pyridin-3-yl)-N-(tetrahydrofuran-3-yl)pyrimidine-5-carboxamide is an oral, small molecule DGAT2 inhibitor that is postulated to decrease hepatic triglyceride (TG) synthesis and hepatic lipid burden in NAFLD and NASH.
# [3] = target: T2, mouse MGAT1 (Mus musculus, UniProt Q91ZV4); assay: Selectivity by biochemical assessment versus mouse MGAT1; conditions: in vitro
# T2 sequence (Q91ZV4 1-335): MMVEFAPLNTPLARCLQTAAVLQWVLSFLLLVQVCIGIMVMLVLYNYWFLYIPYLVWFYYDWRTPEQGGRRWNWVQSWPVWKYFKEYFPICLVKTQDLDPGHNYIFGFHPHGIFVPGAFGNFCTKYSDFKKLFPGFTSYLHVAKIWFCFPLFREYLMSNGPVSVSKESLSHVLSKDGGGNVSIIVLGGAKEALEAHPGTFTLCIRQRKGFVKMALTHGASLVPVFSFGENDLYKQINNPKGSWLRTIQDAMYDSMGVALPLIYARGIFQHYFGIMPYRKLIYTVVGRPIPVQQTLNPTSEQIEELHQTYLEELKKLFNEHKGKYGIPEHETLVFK
# Source text: as §1
# [4] = target: monoacylglycerol acyltransferase 2 (MGAT2) (Homo sapiens, UniProt Q3SYC2); assay: Selectivity by biochemical assessment versus MGAT2; conditions: in vitro
# Chain of monoacylglycerol acyltransferase 2 (MGAT2) (Q3SYC2 whole entry): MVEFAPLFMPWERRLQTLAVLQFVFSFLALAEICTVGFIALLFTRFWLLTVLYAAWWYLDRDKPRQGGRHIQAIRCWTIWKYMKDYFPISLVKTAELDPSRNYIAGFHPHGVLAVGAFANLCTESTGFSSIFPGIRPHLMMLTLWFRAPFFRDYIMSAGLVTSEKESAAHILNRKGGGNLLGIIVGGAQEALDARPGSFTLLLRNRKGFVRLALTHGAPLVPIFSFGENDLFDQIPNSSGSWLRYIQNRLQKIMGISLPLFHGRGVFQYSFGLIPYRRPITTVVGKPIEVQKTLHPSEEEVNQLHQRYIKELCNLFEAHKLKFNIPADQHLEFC
# Source text: as §1
# [5] = Longer-term studies in western diet fed rats; format: in vivo
# Source text: as §1
# [6] = Plasma triacylglycerol in rats fed a sucrose-diet; format: in vivo
# Source text: as §1
# [7] = target: T3, MGAT3 (Homo sapiens, UniProt Q86VF5); assay: Selectivity by biochemical assessment versus MGAT3; conditions: in vitro
# T3 sequence (Q86VF5 1-341): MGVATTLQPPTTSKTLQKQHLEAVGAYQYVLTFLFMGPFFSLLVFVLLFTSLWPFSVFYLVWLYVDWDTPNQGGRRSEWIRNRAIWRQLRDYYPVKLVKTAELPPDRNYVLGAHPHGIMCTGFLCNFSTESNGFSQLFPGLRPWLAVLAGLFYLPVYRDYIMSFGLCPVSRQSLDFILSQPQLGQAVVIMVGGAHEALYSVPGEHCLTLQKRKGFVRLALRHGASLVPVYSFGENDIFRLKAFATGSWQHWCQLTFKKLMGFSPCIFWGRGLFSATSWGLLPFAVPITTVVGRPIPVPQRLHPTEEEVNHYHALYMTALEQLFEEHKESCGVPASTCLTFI
# Source text: as §1
# [8] = Western diet fed Sprague Dawley rats, ACCi and DGAT2i as monotherapy and in combination (FIG. 10-18); format: in vivo
# Source text: (§2) It appears that the administration of an ACC inhibitor may have positive effects to lower hepatic TGs and potentially other beneficial effects on treatment of NASH.
# [9] = in vivo; conditions: rat
# [10] = tested on: rat ACC isozymes; assay: Inhibition of rat ACC isozymes, incorporation of [14C]-carbonate into [14C]-malonyl-CoA; format: biochemical; conditions: saturating concentrations of ATP
# [11] = tested on: human ACC isozymes; assay: Inhibition of human ACC isozymes, incorporation of [14C]-carbonate into [14C]-malonyl-CoA; format: biochemical; conditions: saturating concentrations of ATP
# [12] = Circulating TGs in human subjects; format: in vivo
# Source text: as §2
# [13] = tested on: hepatic DNL; conditions: Phase 1 study, healthy adult subjects; cited from earlier work
# [14] = tested on: liver malonyl-CoA; assay: Liver malonyl-CoA in rats; format: in vivo
# [15] = in vivo; conditions: monkey
# [16] = tested on: circulating FGF19; assay: Circulating FGF19 levels after single and multiple doses; format: in vivo
# Source text: Pharmacological activation of […] has been proposed as a target for the treatment of NASH (Cariou 2008, Porez et al 2012). […] The nuclear receptor FXR, also known as the Bile Acid Receptor (BAR; NR1H4), is responsible for modulating bile acid production, conjugation, and elimination.
# [17] = tested on: fructose-induced steatosis; assay: Dietary fructose-feeding model with Sprague Dawley rats; format: in vivo
# Source text: [(1R,5S,6R)-3-{2-[(2S)-2-methylazetidin-1-yl]-6-(trifluoromethyl)pyrimidin-4-yl}-3-azabicyclo[3.1.0]hex-6-yl]acetic acid is a potent reversible inhibitor of human KHK-C The fructose, not glucose, component of dietary sugar is unique in its ability to promote features of metabolic syndrome, including steatosis, insulin resistance, and obesity.
structure (smiles),measurement,setting,value
COc1cc(C(=O)N2CCC3(CC2)CC(=O)c2c(cnn2C(C)C)C3)cc(-c2ccc(C(=O)O)cc2)n1 [Form 1 of Example ACCi],water activity at which the form is thermodynamically stable,[1],< 0.2
"CCOc1cccnc1Oc1cncc(-c2ncc(C(=O)N[C@H]3CCOC3)cn2)c1 [Example DGAT2i, (S)-2-(5-((3-ethoxypyridin-2-yl)oxy)pyridin-3-yl)-N-(tetrahydrofuran-3-yl)pyrimidine-5-carboxamide]",selectivity versus hDGAT1,[2],> 2000 fold
same,selectivity versus mouse MGAT1,[3],> 2000 fold
same,selectivity versus MGAT2,[4],> 2000 fold
same,hepatic lipid accumulation,[5],reduced
same,plasma triacylglycerol,[5],reduced
same,plasma triacylglycerol,[6],"robust, dose-dependent reduction of plasma triacylglycerol"
same,selectivity versus MGAT3,[7],> 2000 fold
"COc1cc(C(=O)N2CCC3(CC2)CC(=O)c2c(cnn2C(C)C)C3)cc(-c2ccc(C(=O)O)cc2)n1 [Example ACCi, 4-(4-(1-isopropyl-7-oxo-1,4,6,7-tetrahydrospiro[indazole-5,4′-piperidine]-1′-carbonyl)-6-methoxypyridin-2-yl)benzoic Acid]",circulating TGs (generally measured from plasma),[8],elevations in circulating TGs
same,Kp,[9],≥ 100
same,inhibition of incorporation of [14C]-carbonate into [14C]-malonyl-CoA,[10],inhibited incorporation of [^14C]-carbonate into [^14C]-malonyl-CoA in a concentration-dependent manner
same,inhibition of incorporation of [14C]-carbonate into [14C]-malonyl-CoA,[11],inhibited incorporation of [^14C]-carbonate into [^14C]-malonyl-CoA in a concentration-dependent manner
same,circulating TGs,[12],elevations in circulating TGs
same,hepatic DNL,[13],suppress hepatic DNL
same,liver malonyl-CoA,[14],dose and free plasma concentration-dependent reductions in liver malonyl-CoA
same,Kp,[15],≥ 100
"O=C(O)c1cc(F)c2nc(N3C4CC[C@H]3CC(OCc3c(-c5ccccc5OC(F)(F)F)noc3C3CC3)C4)sc2c1 (stereo partly drawn) [Tropifexor, 2-[(1R,3R,5S)-3-({5-cyclopropyl-3-[2-(trifluoromethoxy)phenyl]-1,2-oxazol-4-yl}methoxy)-8-azabicyclo[3.2.1]octan-8-yl]-4-fluoro-1,3-benzothiazole-6-carboxylic acid]",circulating FGF19 levels,[16],"robust, dose-dependent increase in circulating FGF19 levels"
"C[C@H]1CCN1c1nc(N2C[C@@H]3[C@@H](CC(=O)O)[C@@H]3C2)cc(C(F)(F)F)n1 [Example KHKi, [(1R,5S,6R)-3-{2-[(2S)-2-methylazetidin-1-yl]-6-(trifluoromethyl)pyrimidin-4-yl}-3-azabicyclo[3.1.0]hex-6-yl]Acetic acid]",incidence of fructose-induced steatosis,[17],reduced the incidence of fructose-induced steatosis
COc1cc(C(=O)N2CCC3(CC2)CC(=O)c2c(cnn2C(C)C)C3)cc(-c2ccc(C(=O)O)cc2)n1 [Form 2 of Example ACCi],water activity at which the form is thermodynamically stable,[1],> 0.2
